Paper PMC4303209, “A novel phosphatidylinositol 3-kinase (PI3K) inhibitor directs a potent FOXO-dependent, p53-independent cell cycle arrest phenotype characterized by the differential induction of a subset of FOXO-regulated genes” (Breast Cancer Research : BCR, 2014)

Tested on: MCF-7 breast cancer cells
Test: Microarray gene expression analysis (Agilent whole human genome 4 x 44K; compound vs DMSO, LIMMA log2 fold change)
Format: cell-based
Settings: cell cycle genes

Oc1cccc(-c2nc(N3CCOCC3)c3oc4ncccc4c3n2)c1 [PI-103]
CDC25B log2FC (Gene 994): -0.0551 | CDC25C log2FC (Gene 995): 1.56 | CDC34 log2FC (Gene 997): 0.51 | CDC42 log2FC (Gene 998): 0.08 | CDK2 log2FC (Gene 1017): -0.44 | CDK3 log2FC (Gene 1018): -0.00896 | CDK4 log2FC (Gene 1019): 0.17 | CDK5 log2FC (Gene 1020): 0.18 | CDK7 log2FC (Gene 1022): 0.77 | CDKN1A log2FC (Gene 1026): -1.23 | CDKN1B log2FC (Gene 1027): 1.12 | CDKN1C log2FC (Gene 1028): 0.88 | CDKN2A log2FC (Gene 1029): 0.30 | CDKN2D log2FC (Gene 1032): 0.90 | CDKN3 log2FC (Gene 1033): 0.04 | CENPA log2FC (Gene 1058): 0.29 | CENPE log2FC (Gene 1062): 1.00 | CENPF log2FC (Gene 1063): 1.50 | CETN2 log2FC (Gene 1069): 0.12 | CHD3 log2FC (Gene 1107): -0.15 | CHEK1 log2FC (Gene 1111): 0.38 | CKS1B log2FC (Gene 1163): 0.12 | CKS2 log2FC (Gene 1164): -0.62 | CLTC log2FC (Gene 1213): 0.15 | PLK3 log2FC (Gene 1263): -1.59 | ATF2 log2FC (Gene 1386): 0.88 | CREBL2 log2FC (Gene 1389): 0.85 | MAPK14 log2FC (Gene 1432): -0.30 | CSNK1A1 log2FC (Gene 1452): -0.04 | CSNK1D log2FC (Gene 1453): -0.30 | CSNK1E log2FC (Gene 1454): -0.52 | CSNK2A1 log2FC (Gene 1457): -0.65 | CTBP1 log2FC (Gene 1487): -0.24 | CTGF log2FC (Gene 1490): -0.35 | CYLD log2FC (Gene 1540): 0.38 | CYP27B1 log2FC (Gene 1594): -0.17 | DAPK3 log2FC (Gene 1613): -0.075 | DDB1 log2FC (Gene 1642): 0.26 | DDIT3 log2FC (Gene 1649): 2.08 | DDX3X log2FC (Gene 1654): -1.13 | DHCR24 log2FC (Gene 1718): -0.73 | DHFR log2FC (Gene 1719): 0.49 | DLG1 log2FC (Gene 1739): 0.12 | DMRT1 log2FC (Gene 1761): 0.0553 | DYNC1I2 log2FC (Gene 1781): 0.63 | DNM2 log2FC (Gene 1785): 0.27 | DRD3 log2FC (Gene 1814): -0.0531 | DUSP1 log2FC (Gene 1843): -0.80 | DUSP3 log2FC (Gene 1845): 0.48 | DYRK1A log2FC (Gene 1859): 0.34 | E2F1 log2FC (Gene 1869): -0.12 | E2F2 log2FC (Gene 1870): -0.38 | E2F3 log2FC (Gene 1871): -0.42 | E2F4 log2FC (Gene 1874): -0.66 | E2F5 log2FC (Gene 1875): 0.15 | E2F6 log2FC (Gene 1876): -0.52 | E4F1 log2FC (Gene 1877): 0.31 | ECT2 log2FC (Gene 1894): 0.84 | EDN3 log2FC (Gene 1908): -0.022 | EGF log2FC (Gene 1950): -0.01 | EGFR log2FC (Gene 1956): 0.48 | EIF4EBP1 log2FC (Gene 1978): 0.0433 | EIF4G2 log2FC (Gene 1982): -0.10 | EMD log2FC (Gene 2010): -0.12 | ENSA log2FC (Gene 2029): -0.0565 | EPS8 log2FC (Gene 2059): 0.46 | ERCC2 log2FC (Gene 2068): -0.27 | ERCC3 log2FC (Gene 2071): -0.11 | ERCC4 log2FC (Gene 2072): 0.06 | ERF log2FC (Gene 2077): 0.40 | ERH log2FC (Gene 2079): -0.38 | ERN1 log2FC (Gene 2081): -0.11 | ETS1 log2FC (Gene 2113): -0.82 | EZH2 log2FC (Gene 2146): 0.46 | FANCG log2FC (Gene 2189): 0.0225 | FEN1 log2FC (Gene 2237): -1.06 | FER log2FC (Gene 2241): 0.26 | FGF2 log2FC (Gene 2247): 0.18 | FGF8 log2FC (Gene 2253): -0.13 | FGF10 log2FC (Gene 2255): -0.00185 | FGFR1 log2FC (Gene 2260): -0.37 | FGFR3 log2FC (Gene 2261): -0.16 | FGFR2 log2FC (Gene 2263): 1.81 | FHL1 log2FC (Gene 2273): -0.0644 | FOXC1 log2FC (Gene 2296): -0.77 | FOXM1 log2FC (Gene 2305): -0.022 | FLNA log2FC (Gene 2316): -0.0267 | FNTB log2FC (Gene 2342): -0.45 | GAS1 log2FC (Gene 2619): 0.76 | GAS2 log2FC (Gene 2620): 0.15 | GAS6 log2FC (Gene 2621): -0.10 | GFI1 log2FC (Gene 2672): 0.03 | GNAI1 log2FC (Gene 2770): 1.07 | GNAI2 log2FC (Gene 2771): -0.26 | GNAI3 log2FC (Gene 2773): 0.53 | SFN log2FC (Gene 2810): -1.15 | GPR3 log2FC (Gene 2827): -0.30 | GPS1 log2FC (Gene 2873): 0.025 | GPS2 log2FC (Gene 2874): 0.19 | GSK3B log2FC (Gene 2932): -0.45 | GSPT1 log2FC (Gene 2935): -0.35 | MSH6 log2FC (Gene 2956): -0.0751 | GTF2H1 log2FC (Gene 2965): 0.32 | H2AFX log2FC (Gene 3014): -0.94 | HCFC1 log2FC (Gene 3054): -0.62 | HDAC1 log2FC (Gene 3065): -0.55 | HDAC2 log2FC (Gene 3066): 0.06 | HGF log2FC (Gene 3082): -0.20 | HHEX log2FC (Gene 3087): -0.29 | FOXA1 log2FC (Gene 3169): 0.13 | HOXA13 log2FC (Gene 3209): 0.04 | HRAS log2FC (Gene 3265): -0.76 | PRMT2 log2FC (Gene 3275): 0.29 | HES1 log2FC (Gene 3280): -1.26 | HSF1 log2FC (Gene 3297): 0.25 | HSPA2 log2FC (Gene 3306): -1.30 | HSP90AA1 log2FC (Gene 3320): 0.72 | ID2 log2FC (Gene 3398): 1.14 | ID3 log2FC (Gene 3399): -0.08 | IFNG log2FC (Gene 3458): -0.04 | IGF1 log2FC (Gene 3479): 0.05 | IGF1R log2FC (Gene 3480): 0.08 | IGF2 log2FC (Gene 3481): 0.0241 | IL1A log2FC (Gene 3552): -0.07 | IL1B log2FC (Gene 3553): 0.035 | IL8 log2FC (Gene 3576): -1.30 | IL12B log2FC (Gene 3593): -0.0227 | ILF3 log2FC (Gene 3609): -0.47 | ILK log2FC (Gene 3611): -0.0473 | INCENP log2FC (Gene 3619): 0.13 | ING2 log2FC (Gene 3622): 0.26 | INHA log2FC (Gene 3623): -0.06 | INSM1 log2FC (Gene 3642): -0.06 | INSR log2FC (Gene 3643): 0.74 | IRF6 log2FC (Gene 3664): 0.56 | ITGB1 log2FC (Gene 3688): 0.58 | JUN log2FC (Gene 3725): -0.94 | JUNB log2FC (Gene 3726): -0.65 | KIF11 log2FC (Gene 3832): 0.83 | KRT18 log2FC (Gene 3875): -0.44 | STMN1 log2FC (Gene 3925): 0.33 | LIF log2FC (Gene 3976): -1.84 | LIG1 log2FC (Gene 3978): 0.0377 | LIG3 log2FC (Gene 3980): -0.50 | LLGL2 log2FC (Gene 3993): -0.0661 | LRP5 log2FC (Gene 4041): -0.40 | MAD2L1 log2FC (Gene 4085): -0.14 | SMAD3 log2FC (Gene 4088): 0.24 | MCM3 log2FC (Gene 4172): 0.0559 | MCM5 log2FC (Gene 4174): 0.04 | MCM7 log2FC (Gene 4176): 0.08 | MDM2 log2FC (Gene 4193): -0.11 | MDM4 log2FC (Gene 4194): -0.14 | RAB8A log2FC (Gene 4218): -0.76 | MIF log2FC (Gene 4282): 0.23 | MKI67 log2FC (Gene 4288): 0.06
